Test results taken from patent publication US20160106102A1, “KNOWN AND NEW HETEROCYCLIC COMPOUNDS AS PEST CONTROL AGENTS” (BAYER CROPSCIENCE AKTIENGESELLSCHAFT, priority 2013, published 2016).

system: Myzus persicae; experiment: Myzus persicae - sachet test; type: in vivo; details: Myzus persicae; application rate of 30 ppm in nutrient medium; 100% = all animals killed; read-out: efficacy (kill in %)
Description: Myzus persicae—Sachet Test Solvent: 2% by vol. of N-methylpyrrolidone • 2% by vol. of diacetone alcohol To produce an appropriate active ingredient formulation, the active ingredient is mixed with the specified amounts of solvent and the concentrate is diluted to the desired concentration with water. The active ingredient formulation is added to a specific nutrient medium in the desired concentration by pipetting. This plate is sealed and combined with a further plate populated with the green peach aphid (Myzus persicae). After the desired time, the kill in % is determined. 100% means that all the animals have been killed; 0% means that no animals have been killed.

| Compound | pest or weed control at 30 ppm [%] |
| --- | --- |
| CCc1cc(NC(=O)c2cccnc2)nn1Cc1ccccc1 [Compound I-1-35, N-(1-Benzyl-5-ethyl-1H-pyrazol-3-yl)nicotinamide] | 100 |

same assay, conditions: application rate of 6 ppm in nutrient medium; 100% = all animals killed

| Compound | efficacy (kill in %) [%] |
| --- | --- |
| Cc1cc(NC(=O)c2cccnc2)nn1Cc1ncc(Cl)cn1 [Compound I-1-195] | 100 |
| Cc1cc(NC(=O)c2cccnc2)nn1-c1ccc(Cl)cc1Cl [Compound I-1-207] | 100 |
| Cc1ccc2oc(Cn3nc(NC(=O)c4cccnc4)cc3C)nc2c1 [Compound I-1-353] | 100 |
| Cc1cc(NC(=O)c2cccnc2)nn1C(=O)NCc1ccccc1F [Compound I-1-326] | 100 |
| Cc1cc(NC(=O)c2cccnc2)nn1C(=O)NCC1CC1 [Compound I-1-316] | 100 |
| Cc1cc(NC(=O)c2cccnc2)nn1Cn1nc(C)n(C2CC2)c1=O [Compound I-1-146] | 100 |
| O=C(Nc1ccn(Cc2cc(F)ccc2F)n1)c1cccnc1 [Compound I-1-90] | 100 |
| Cc1cc(NC(=O)c2cccnc2)nn1-c1cccc(C#N)c1 [Compound I-1-217] | 100 |
| CC(=O)n1nc(NC(=O)c2cccnc2)cc1C [Compound I-1-120] | 100 |
| CCc1cc(NC(=O)c2cccnc2)nn1Cc1ccc(Cl)nc1 [Compound I-1-58] | 80 |
| N#Cc1cc(NC(=O)c2cccnc2)nn1Cc1ncccn1 [Compound I-1-269] | 100 |
| O=C(Nc1ccn(Cc2ccccc2F)n1)c1cccnc1 [Compound I-1-88] | 100 |
| Cc1cc(NC(=O)c2cccnc2)nn1C(=O)NC(C)c1ccccc1 (stereo not drawn) [Compound I-1-331] | 100 |
| N#Cc1ccccc1Cn1ccc(NC(=O)c2cccnc2)n1 [Compound I-1-89] | 100 |
| Cc1cc(NC(=O)c2cccnc2)nn1C(=O)NCc1ccncn1 [Compound I-1-336] | 100 |
| Cn1nc(NC(=O)c2cccnc2)cc1OC(F)F [Compound I-1-111] | 100 |
| O=C(Nc1nnn(Cc2ccc(Cl)nc2)n1)c1cccnc1 [Compound I-4-3] | 100 |
| COc1ccc(C(=O)Nc2cc(C)n(Cc3ccccc3)n2)cn1 [Compound I-1-104] | 80 |
| Cc1cc(NC(=O)c2cccnc2)nn1CC=C(Cl)Cl [Compound I-1-238] | 100 |
| Cc1cc(NC(=O)c2cccnc2)nn1C(=O)N(C)S(=O)(=O)c1ccccc1 [Compound I-1-263] | 100 |
| Cc1cc(NC(=O)c2cccnc2)nn1C(=O)NCCOc1c(F)cccc1F [Compound I-1-171] | 80 |

same assay, conditions: application rate of 30 ppm in nutrient medium; 100% = all animals killed

| Compound | efficacy (kill in %) [%] |
| --- | --- |
| Cc1cc(NC(=O)c2cccnc2)nn1Cc1ncc(Cl)cn1 [Compound I-1-195] | 100 |
| Cc1cc(NC(=O)c2cccnc2)nn1-c1ccc(Cl)cc1Cl [Compound I-1-207] | 100 |
| Cc1ccc2oc(Cn3nc(NC(=O)c4cccnc4)cc3C)nc2c1 [Compound I-1-353] | 100 |
| Cc1cc(NC(=O)c2cccnc2)nn1C(=O)NCc1ccccc1F [Compound I-1-326] | 100 |
| Cc1cc(NC(=O)c2cccnc2)nn1C(=O)NCC1CC1 [Compound I-1-316] | 100 |
| Cc1cc(NC(=O)c2cccnc2)nn1Cn1nc(C)n(C2CC2)c1=O [Compound I-1-146] | 100 |
| O=C(Nc1ccn(Cc2cc(F)ccc2F)n1)c1cccnc1 [Compound I-1-90] | 100 |
| Cc1cc(NC(=O)c2cccnc2)nn1-c1cccc(C#N)c1 [Compound I-1-217] | 100 |
| CC(=O)n1nc(NC(=O)c2cccnc2)cc1C [Compound I-1-120] | 100 |
| CCc1cc(NC(=O)c2cccnc2)nn1Cc1ccc(Cl)nc1 [Compound I-1-58] | 100 |
| N#Cc1cc(NC(=O)c2cccnc2)nn1Cc1ncccn1 [Compound I-1-269] | 100 |
| O=C(Nc1ccn(Cc2ccccc2F)n1)c1cccnc1 [Compound I-1-88] | 100 |
| Cc1cc(NC(=O)c2cccnc2)nn1C(=O)NC(C)c1ccccc1 (stereo not drawn) [Compound I-1-331] | 100 |
| N#Cc1ccccc1Cn1ccc(NC(=O)c2cccnc2)n1 [Compound I-1-89] | 100 |
| Cc1cc(NC(=O)c2cccnc2)nn1C(=O)NCc1ccncn1 [Compound I-1-336] | 100 |
| Cn1nc(NC(=O)c2cccnc2)cc1OC(F)F [Compound I-1-111] | 100 |
| O=C(Nc1nnn(Cc2ccc(Cl)nc2)n1)c1cccnc1 [Compound I-4-3] | 100 |
| COc1ccc(C(=O)Nc2cc(C)n(Cc3ccccc3)n2)cn1 [Compound I-1-104] | 80 |
| Cc1cc(NC(=O)c2cccnc2)nn1CC=C(Cl)Cl [Compound I-1-238] | 100 |
| Cc1cc(NC(=O)c2cccnc2)nn1C(=O)N(C)S(=O)(=O)c1ccccc1 [Compound I-1-263] | 100 |
| Cc1cc(NC(=O)c2cccnc2)nn1C(=O)NCCOc1c(F)cccc1F [Compound I-1-171] | 100 |

system: not listed separately; experiment: log P determination by LC-MS in the acidic range; type: physicochemical; details: LC-MS in the acidic range
Description: The LC-MS determination in the acidic range is effected at pH 2.7 using 0.1% aqueous formic acid and acetonitrile (contains 0.1% formic acid) as eluents, linear gradient from 10% acetonitrile to 95% acetonitrile. Alternatively, the determination is effected in the acidic range at pH 2.3 using 0.1% aqueous phosphoric acid and acetonitrile as eluents; linear gradient from 10% acetonitrile to 95% acetonitrile.

| Compound | log P (acid) |
| --- | --- |
| Cc1cc(NC(=O)c2cccnc2)nn1Cc1ncc(Cl)cn1 [Compound I-1-195] | 1.23 |
| Cc1cc(NC(=O)c2cccnc2)nn1-c1ccc(Cl)cc1Cl [Compound I-1-207] | 2.36 |
| Cc1ccc2oc(Cn3nc(NC(=O)c4cccnc4)cc3C)nc2c1 [Compound I-1-353] | 1.9 |
| Cc1cc(NC(=O)c2cccnc2)nn1C(=O)NCc1ccccc1F [Compound I-1-326] | 2.04 |
| Cc1cc(NC(=O)c2cccnc2)nn1C(=O)NCC1CC1 [Compound I-1-316] | 1.65 |
| Cc1cc(NC(=O)c2cccnc2)nn1Cn1nc(C)n(C2CC2)c1=O [Compound I-1-146] | 1.05 |
| O=C(Nc1ccn(Cc2cc(F)ccc2F)n1)c1cccnc1 [Compound I-1-90] | 1.65 |
| Cc1cc(NC(=O)c2cccnc2)nn1-c1cccc(C#N)c1 [Compound I-1-217] | 1.59 |
| CC(=O)n1nc(NC(=O)c2cccnc2)cc1C [Compound I-1-120] | 1.18 |
| CCc1cc(NC(=O)c2cccnc2)nn1Cc1ccc(Cl)nc1 [Compound I-1-58] | 1.67 |
| N#Cc1cc(NC(=O)c2cccnc2)nn1Cc1ncccn1 [Compound I-1-269] | 1.0 |
| O=C(Nc1ccn(Cc2ccccc2F)n1)c1cccnc1 [Compound I-1-88] | 1.58 |
| Cc1cc(NC(=O)c2cccnc2)nn1C(=O)NC(C)c1ccccc1 (stereo not drawn) [Compound I-1-331] | 2.22 |
| N#Cc1ccccc1Cn1ccc(NC(=O)c2cccnc2)n1 [Compound I-1-89] | 1.37 |
| Cc1cc(NC(=O)c2cccnc2)nn1C(=O)NCc1ccncn1 [Compound I-1-336] | 1.05 |
| Cn1nc(NC(=O)c2cccnc2)cc1OC(F)F [Compound I-1-111] | 0.89 |
| COc1ccc(C(=O)Nc2cc(C)n(Cc3ccccc3)n2)cn1 [Compound I-1-104] | 2.43 |
| Cc1cc(NC(=O)c2cccnc2)nn1CC=C(Cl)Cl [Compound I-1-238] | 1.83 |
| Cc1cc(NC(=O)c2cccnc2)nn1C(=O)N(C)S(=O)(=O)c1ccccc1 [Compound I-1-263] | 2.13 |
| Cc1cc(NC(=O)c2cccnc2)nn1C(=O)NCCOc1c(F)cccc1F [Compound I-1-171] | 2.21 |

same assay, conditions: Table 4; HPLC on reversed-phase column (C 18), 55° C., acidic range (pH 2.7 or pH 2.3)

| Compound | log P (acid) |
| --- | --- |
| O=C(Nc1nnn(Cc2ccc(Cl)nc2)n1)c1cccnc1 [Compound I-4-3] | 1.05 |

same assay, conditions: pH 2.7, LC-MS in the acidic range; read-out: log P (acid)

| Compound | chromatographic logP |
| --- | --- |
| CCc1cc(NC(=O)c2cccnc2)nn1Cc1ccccc1 [Compound I-1-35, N-(1-Benzyl-5-ethyl-1H-pyrazol-3-yl)nicotinamide] | 2.03 |

same assay, conditions: pH 2.7, values given in the synthesis examples and NMR lists; read-out: HPLC-MS: log P

| Compound | chromatographic logP |
| --- | --- |
| CCc1cc(NC(=O)c2cccnc2)nn1Cc1ccccc1 [Compound I-1-35, N-(1-Benzyl-5-ethyl-1H-pyrazol-3-yl)nicotinamide] | 2.03 |
